We go through 16 compounds from patent US12060349B2, “Glucosylceramide synthase inhibitors” (Genzyme Corporation, priority 2012, dated 2024).

Read-outs that look alike come from different tables or passages of the source.

Test [1] deals with T1, glucosylceramide synthase (Homo sapiens, UniProt Q16739).
T1 construct: Microsomes were isolated from A375 human melanoma cells; endogenous in cells; host or cells: A375 human melanoma cells (microsomal fraction, 100,000 g pellet)
T1 sequence (Q16739 1-394): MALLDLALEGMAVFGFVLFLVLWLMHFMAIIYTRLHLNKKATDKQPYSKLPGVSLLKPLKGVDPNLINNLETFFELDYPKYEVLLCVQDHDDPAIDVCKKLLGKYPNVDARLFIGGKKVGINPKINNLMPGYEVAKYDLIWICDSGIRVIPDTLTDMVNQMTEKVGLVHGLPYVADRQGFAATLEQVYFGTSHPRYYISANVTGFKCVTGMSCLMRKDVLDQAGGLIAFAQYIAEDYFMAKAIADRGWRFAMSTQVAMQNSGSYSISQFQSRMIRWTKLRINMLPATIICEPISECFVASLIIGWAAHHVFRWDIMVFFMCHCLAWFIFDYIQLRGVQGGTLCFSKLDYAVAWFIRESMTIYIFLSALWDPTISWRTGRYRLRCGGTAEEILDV
Nature of the test: microsomal assay measuring conversion of ceramide to glucosylceramide by HPLC (GCS IC50). In kind it is biochemical. The note with it: concentration causing 50% inhibition of glucosylceramide synthase activity. A digest of the protocol: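 Microsomal preparation assayed for glucosylceramide synthase by direct HPLC measurement of ceramide conversion to glucosylceramide. GCS IC50 is the compound concentration giving 50% inhibition of enzyme activity.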

The subject of test [2] is GM3 expression on the cell surface, B16 mouse melanoma cells. The test is described as follows: cell based phenotypic assay, cell surface GM3 by antibody mediated immunofluorescence, B16 (GM3 B16 IC50). The note with it: 50% inhibition of GM3 expression on the cell surface. An outline of the steps: (§1)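 Both lines undergo the phenotypic GM3 assay, and viability is recorded from that same cell-based run.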

The test system of test [3] is GM3 expression on the cell surface, C32 human melanoma cells. Nature of the test: cell based phenotypic assay, cell surface GM3 by antibody mediated immunofluorescence, C32 (GM3 C32 IC50). The settings on record: 50% inhibition of GM3 expression on the cell surface. A digest of the protocol:
as §1

Another test relates to B16 mouse melanoma cells. The test is described as follows: cell viability in the B16 cell-based assay (Viability, B16 IC50). An outline of the steps: (§2)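 Two melanoma lines, mouse B16 and human C32, were treated and surface GM3 quantified by antibody immunofluorescence for IC50. A parallel viability readout gives the concentration killing 50% of cells, with values over 10 indicating no cell death.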

A further test has as its system C32 human melanoma cells. The test is described as follows: cell viability in the C32 cell-based assay (Viability, C32 IC50). The settings on record: concentration causing 50% cell death, values greater than 10 represent a lack of cell death. An outline of the steps:
as §2

The mark [4] stands for this setting: Mus musculus, read-out: GM3 B16 IC50, B16 mouse melanoma cells.
Where [5] appears, read: Homo sapiens, read-out: GM3 C32 IC50, C32 human melanoma cells.
Where [6] appears, read: Mus musculus, B16, read-out: Viability, B16 IC50.
Setting [7] is: Homo sapiens, C32, read-out: Viability, C32 IC50, C32 cells.
Setting [8] is: Mus musculus, B16 mouse melanoma cells, read-out: GM3 B16 IC50.
[9] abbreviates: Homo sapiens, C32 human melanoma cells, read-out: GM3 C32 IC50.
Where [10] appears, read: Mus musculus, B16, B16 cells, concentration causing 50% cell death, values greater than 10 represent a lack of cell death, read-out: Viability, B16 IC50.
Setting [11] is: Homo sapiens, C32, C32 cells, read-out: Viability, C32 IC50.

For orientation: IC50 means the concentration needed to halve the response being measured.

Regarding `CNC(=O)c1ccc(-c2ccc(C(C)(C)NC(=O)OC3CN4CCC3CC4)cc2)cc1` (centres unmarked) [Example 252, Quinuclidin-3-yl (2-(4′-(methylcarbamoyl)-[1,1′-biphenyl]-4-yl)propan-2-yl)carbamate], the IC50 is 1840 nM in test [1]; 1500 nM in test [2] (setting [4]); 220 nM in test [3] (setting [5]); ≥ 10 µM in the test with B16 mouse melanoma cells (setting [6]); ≥ 10000 nM in the test on C32 human melanoma cells (setting [7]).

As for `CC(C)(NC(=O)OC1CN2CCC1CC2)c1ccc(-c2ccc(OCCn3cccn3)cc2)cc1` (centres unmarked) [Example 179, Quinuclidin-3-yl (2-(4′-(2-(1H-pyrazol-1-yl)ethoxy)-[1,1′-biphenyl]-4-yl)propan-2-yl)carbamate], the half-inhibitory concentration (IC50) in test [1] was 6.73 nM; in test [2] (setting [4]), 95.2 nM; in test [3] (setting [5]) it was 4.99 nM; with B16 mouse melanoma cells (setting [6]) it was 8.73 µM; in the test on C32 human melanoma cells (setting [7]), 3160 nM.

With `CN(C)C(=O)c1ccc(Oc2ccc(C(C)(C)NC(=O)OC3CN4CCC3CC4)cc2)cc1` (centres unmarked) [Example 287, Quinuclidin-3-yl 2-(4-(4-(dimethylcarbamoyl)phenoxy)phenyl)propan-2-ylcarbamate], the IC50 was 1330 nM in test [1]; 2200 nM in test [2] (read-out: GM3 B16 IC50, B16 mouse melanoma cells); 229 nM in test [3] (read-out: GM3 C32 IC50, C32 human melanoma cells); ≥ 10 µM with B16 mouse melanoma cells (read-out: Viability, B16 IC50, B16 cells, concentration causing 50% cell death, values greater than 10 represent a lack of cell death); 3160 nM with C32 human melanoma cells (read-out: Viability, C32 IC50, C32 cells).

Regarding `COCCOc1ccc(-c2ccnc(N3CCC(F)(C(=O)NC4(C)CCN5CCC4CC5)CC3)n2)cc1` (centres unmarked) [Example 93, 4-Fluoro-1-(4-(4-(2-methoxyethoxy)phenyl)pyrimidin-2-yl)-N-(4-methyl-1-azabicyclo[3.2.2]nonan-4-yl)piperidine-4-carboxamide], the concentration for half-maximal inhibition (IC50) in test [1] worked out at 3.96 nM; in test [2] (setting [8]), 43.9 nM; in test [3] (setting [9]), 0.261 nM; with B16 mouse melanoma cells (setting [10]), 3.96 µM; with C32 human melanoma cells (setting [11]), 316 nM.

In the case of `COCCCc1ccc(-c2ccc(C3(NC(=O)NC4(C)CCN5CCC4CC5)CC3)cc2)cc1` (centres unmarked) [Example 213, 1-(1-(4′-(3-Methoxypropyl)-[1,1′-biphenyl]-4-yl)cyclopropyl)-3-(4-methyl-1-azabicyclo[3.2.2]nonan-4-yl)urea], the IC50 in test [1] was 1.12 nM; in test [2] (setting [8]) it was 5.9 nM; in test [3] (setting [9]) it was 0.35 nM; in the test with B16 mouse melanoma cells (setting [10]), 9.22 µM; with C32 human melanoma cells (setting [11]) it was ≥ 10000 nM.

As for `CCCC1(NC(=O)NC2(c3ccc(-c4ccc(COCc5cccnc5)cc4)cc3)CC2)CN2CCC1CC2` (centres unmarked) [Example 218, 1-(3-Propylquinuclidin-3-yl)-3-(1-(4′-((pyridin-3-ylmethoxy)methyl)-[1,1′-biphenyl]-4-yl)cyclopropyl)urea], the half-maximal inhibitory concentration (IC50) was 11 nM in test [1]; 80.9 nM in test [2] (setting [8]); 2.97 nM in test [3] (setting [9]); 7.95 µM in the test on B16 mouse melanoma cells (setting [10]); ≥ 10000 nM in the test with C32 human melanoma cells (setting [11]).

Turning to `CC1(NC(=O)N2CCN(c3cccc(C4CCCCC4)c3)CC2)CCN2CCC1CC2` (centres unmarked) [Example 29, 4-(3-Cyclohexylphenyl)-N-(4-methyl-1-azabicyclo[3.2.2]nonan-4-yl)piperazine-1-carboxamide], the half-inhibitory concentration (IC50) in test [1] came to 309 nM; in test [2] (setting [8]), 2660 nM; in test [3] (setting [9]), 38.2 nM; with B16 mouse melanoma cells (setting [10]), 7.81 µM; in the test on C32 human melanoma cells (setting [11]), 1000 nM.

On to `C[C@@H]1CN(C(=O)NC2(C)CCN3CCC2CC3)C[C@H](C)N1c1nccc(-c2ccccc2)n1` (relative stereo) [Example 147, cis-3,5-Dimethyl-N-(4-methyl-1-azabicyclo[3.2.2]nonan-4-yl)-4-(4-phenylpyrimidin-2-yl)piperazine-1-carboxamide], for which the IC50 in test [1] was found to be 5.45 nM; in test [2] (setting [8]), 96 nM; in test [3] (setting [9]), 1 nM; in the test with B16 mouse melanoma cells (setting [10]) it was 3.51 µM; in the test with C32 human melanoma cells (setting [11]), 1000 nM.

With `CC1(NC(=O)C2(F)CCN(c3ncnc(Oc4ccc(F)cc4)n3)CC2)CCN2CCC1CC2` (centres unmarked) [Example 117, 4-Fluoro-1-(4-(4-fluorophenoxy)-1,3,5-triazin-2-yl)-N-(4-methyl-1-azabicyclo[3.2.2]nonan-4-yl)piperidine-4-carboxamide], the IC50 is 168 nM in test [1]; 88.4 nM in test [2] (setting [8]); 9.05 nM in test [3] (setting [9]); ≥ 10 µM with B16 mouse melanoma cells (setting [10]); 1000 nM with C32 human melanoma cells (setting [11]).

In the case of `COCc1ccc(-c2nc(N3CCC(C(=O)NC4(C)CN5CCC4CC5)CC3)ncc2F)cc1` (centres unmarked) [Example 61, 1-(5-Fluoro-4-(4-(methoxymethyl)phenyl)pyrimidin-2-yl)-N-(3-methylquinuclidin-3-yl)piperidine-4-carboxamide], the IC50 in test [1] was 1.41 nM; in test [2] (setting [8]) it was 52.4 nM; in test [3] (setting [9]), 0.13 nM; in the test on B16 mouse melanoma cells (setting [10]) it was 8.54 µM; in the test on C32 human melanoma cells (setting [11]) it was 46.4 nM.

As for `CCC1(NC(=O)NC2(c3ccc(-c4ccc(CCCOC)cc4)cc3)CC2)CN2CCC1CC2` (centres unmarked) [Example 215, 1-(3-Ethylquinuclidin-3-yl)-3-(1-(4′-(3-methoxypropyl)-[1,1′-biphenyl]-4-yl)cyclopropyl)urea], the IC50 in test [1] is 2.48 nM; in test [2] (setting [8]), 16.2 nM; in test [3] (setting [9]) it was 0.542 nM; in the test on B16 mouse melanoma cells (setting [10]) it was 7.55 µM; with C32 human melanoma cells (setting [11]), ≥ 10000 nM.

With `CC(C)(C)CCS(=O)(=O)c1ccc(-c2ccc(C(C)(C)NC(=O)NC3(C)CN4CCC3CC4)cc2)cc1` (centres unmarked) [Example 246, 1-(2-(4′-((3,3-Dimethylbutyl)sulfonyl)-[1,1′-biphenyl]-4-yl)propan-2-yl)-3-(3-methylquinuclidin-3-yl)urea], the half-inhibitory concentration (IC50) in test [1] is 1.7 nM; in test [2] (setting [8]), 11.4 nM; in test [3] (setting [9]) it was 0.624 nM; with B16 mouse melanoma cells (setting [10]), ≥ 10 µM; in the test on C32 human melanoma cells (setting [11]) it was 1000 nM.

`CC(C)(NC(=O)NC1(C)CCN2CCC1CC2)c1ccc(Oc2ccc(C(=O)N3CCCCC3)cc2)cc1` (centres unmarked) [Example 300, 1-(4-Methyl-1-aza-bicyclo[3.2.2]nonan-4-yl)-3-(2-(4-(4-(piperidine-1-carbonyl)phenoxy)phenyl)propan-2-yl)urea]: the IC50 in test [1] was 6.85 nM; in test [2] (setting [8]), 87.6 nM; in test [3] (setting [9]), 1.54 nM; with B16 mouse melanoma cells (setting [10]), ≥ 10 µM; in the test with C32 human melanoma cells (setting [11]), 316 nM.

Consider `CC1(NC(=O)C2CCN(c3nccc(-c4ccc(F)cc4)n3)CC2)CCN2CCC1CC2` (single isomer, unassigned) [Example 42, 1-(4-(4-Fluorophenyl)pyrimidin-2-yl)-N-(4-methyl-1-azabicyclo[3.2.2]nonan-4-yl)piperidine-4-carboxamide], for which the IC50 in test [1] was determined as 94.1 nM; in test [2] (B16 mouse melanoma cells, read-out: GM3 B16 IC50) it was 918 nM; in test [3] (C32 human melanoma cells, read-out: GM3 C32 IC50), 9.82 nM; with B16 mouse melanoma cells (setting [10]) it was 7.66 µM; in the test on C32 human melanoma cells (setting [11]), 4640 nM.

As for `CC(C)(NC(=O)NC1(C)CN2CCC1CC2)c1ccc(-c2ccc(OCCn3cccn3)cc2)cc1` (centres unmarked) [Example 180, 1-(2-(4′-(2-(1H-Pyrazol-1-yl)ethoxy)-[1,1′-biphenyl]-4-yl)propan-2-yl)-3-(3-methylquinuclidin-3-yl)urea], the concentration for half-maximal inhibition (IC50) in test [1] turned out to be 5.3 nM; in test [2] (setting [8]), 46.3 nM; in test [3] (setting [9]), 1.81 nM; in the test with B16 mouse melanoma cells (setting [10]) it was 3.16 µM; in the test on C32 human melanoma cells (setting [11]) it was 3160 nM.

Take `CC1(NC(=O)C2CCN(c3ncc(F)c(-c4ccc(F)cc4)n3)CC2)CCN2CCC1CC2` (centres unmarked) [Example 55, 1-(5-Fluoro-4-(4-fluorophenyl)pyrimidin-2-yl)-N-(4-methyl-1-azabicyclo[3.2.2]nonan-4-yl)piperidine-4-carboxamide]: the IC50 came out at 0.736 nM in test [1]; 47.5 nM in test [2] (setting [8]); 0.0479 nM in test [3] (setting [9]); 3.74 µM in the test with B16 mouse melanoma cells (setting [10]); 100 nM with C32 human melanoma cells (setting [11]).
